Ends that are not written are not given here.
Legend:
[1] = target: T1, human GLP-2R (Homo sapiens, UniProt O95838); assay: Cell-based reporter gene assay (RGA), HEK293-GLP-2R-Luc, CRE-luciferase; conditions: diluted to 2.665 µmol/L and further 7-fold for 10 concentration points; HEK293-GLP-2R-Luc cells
T1 construct: The full-length cDNA of human GLP-2R was synthesized, cloned, and inserted into the pLU.cmv.Zeo vector; expressed in transfected cells
T1 sequence (O95838 1-553): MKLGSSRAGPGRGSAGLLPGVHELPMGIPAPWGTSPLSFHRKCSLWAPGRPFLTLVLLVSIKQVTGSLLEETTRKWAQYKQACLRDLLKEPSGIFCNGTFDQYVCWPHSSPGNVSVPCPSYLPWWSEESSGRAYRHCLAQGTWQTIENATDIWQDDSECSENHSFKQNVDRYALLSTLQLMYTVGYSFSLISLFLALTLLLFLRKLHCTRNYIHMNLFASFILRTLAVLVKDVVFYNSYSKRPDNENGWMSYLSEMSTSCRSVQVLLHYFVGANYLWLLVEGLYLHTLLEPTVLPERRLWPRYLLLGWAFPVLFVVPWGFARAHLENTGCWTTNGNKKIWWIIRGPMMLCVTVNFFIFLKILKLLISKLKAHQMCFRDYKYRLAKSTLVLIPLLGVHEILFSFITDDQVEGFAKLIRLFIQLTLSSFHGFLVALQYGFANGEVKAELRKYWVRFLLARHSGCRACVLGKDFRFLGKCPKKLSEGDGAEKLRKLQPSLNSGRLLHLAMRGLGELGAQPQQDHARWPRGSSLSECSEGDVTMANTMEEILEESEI
Description: To generate a HEK293 cell line stably expressing CRE-driven luciferase and GLP2R, the CRE-miniP.Luc virus-containing cell supernatants were diluted in DMEM in the presence of 8 µg/mL polybrene before being added to HEK293 cells. To obtain a stable cell pool, the medium was replaced 48 h after incubation, with fresh culture medium containing 3 µg/mL puromycin. After about 3 weeks selection, the cell pool was then further infected with pLU.cmv-GLP2R.Zeo virus and selected with 200 µg/mL Zeocin and 3 µg/mL puromycin. […] The expression of GLP-2R was examined using flow cytometry. After that, the positive clones were routinely maintained in selective medium.
Cell-based RGA has been described previously. Briefly, 50 microliters of HEK293-GLP-2R-Luc cells were seeded into a 96-well white plate at a density of 4 × 10^4 cells/well. The cells were then incubated at 37 °C with 5% CO2 overnight (16 to 24 h). […] After 5 h of incubation, 100 µL of britelite plus reporter Gene Assay reagent were added to each well and mixed thoroughly under subdued light conditions for 5 min. The RLU signal was then determined with a SpectraMax M5e multimode plate reader (Molecular Devices, San Jose, CA, USA).
The RGA was validated as described previously. […] Samples of each potency level were tested by two analysts 8 times in total. […] The response of HEK293-GLP2R-Luc cells to these samples were determined as illustrated in 4.6.
The lower/upper asymptote was determined by the ratio of the top asymptote to the bottom asymptote when RGA best fit the 4PL model. The correlation coefficient (R^2), deviations from parallelism, and the regression in the 4PL model were estimated using SoftMax® Pro 7.1 software (Molecular Devices, San Jose, CA, USA). Specifically, a linear regression with an R^2 value no less than 0.98 was considered to have a very good fit. Additionally, a p-value below 0.01 was regarded as statistically significant. […] All the dose-response curves were plotted using GraphPad Prism® software 8.0.2 (GraphPad, Boston, MA, USA).

[2] = parameters: method as in PMID 35933503; conditions: general statement; cited from earlier work
Source text: The diverse functions of GLP-2 highlight its significance in maintaining intestinal health and physiology. As a naturally occurring gut hormone, GLP-2 not only promotes nutrient absorption by decreasing intestinal motility and permeability, but also plays a pivotal role in stimulating intestinal epithelial cell growth and function. This multifaceted action of GLP-2 is crucial for the maintenance of the intestinal barrier, which is essential for preventing the translocation of harmful bacteria and toxins into the bloodstream.

Substance: HGEGTFSSELATILDALAARDFINWLIATKITDKKKKKK-NH2 [glepaglutide]
- dose-response curve in RGA [1]: induced sigmoid curves similar to those induced by teduglutide
- bioactivity [2]: enhanced bioactivities
- half-life [2]: extended half-lives
